Laboratory results taken from patent US12448382B2, “Heterocyclic compounds for mediating tyrosine kinase 2 activity” (GUANGZHOU INNOCARE PHARMA TECH CO., LTD., priority 2019, dated 2025).

How the values were obtained:
[1] = target: T1, human recombinant TYK2 protein (Homo sapiens, UniProt P29597); assay: TYK2 Inhibition Assay (HTRF kinase assay); type: biochemical; details: human recombinant TYK2, 11.25 μM ATP substrate solution
T1 construct: purchased Carna Biosciences 08-147
T1 sequence (P29597 871-1187 limits assumed): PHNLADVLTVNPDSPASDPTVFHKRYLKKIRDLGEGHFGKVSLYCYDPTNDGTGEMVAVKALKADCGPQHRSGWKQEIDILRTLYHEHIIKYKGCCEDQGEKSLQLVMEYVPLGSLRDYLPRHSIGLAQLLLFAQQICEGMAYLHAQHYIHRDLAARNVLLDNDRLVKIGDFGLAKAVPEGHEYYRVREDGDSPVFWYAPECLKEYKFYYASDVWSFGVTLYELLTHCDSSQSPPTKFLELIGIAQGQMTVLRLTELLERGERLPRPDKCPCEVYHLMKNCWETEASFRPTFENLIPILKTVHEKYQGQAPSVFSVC
Summary of the method: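 Recombinant human TYK2 was pre-incubated 15 min at room temperature with compound, then reacted for 40 min with biotinylated tyrosine-kinase substrate and ATP (substrate solution 11.25 μM ATP, 0.5 μM substrate; 5 mM MgCl2, 0.01% Brij35). Phosphorylation was read by HTRF 665/620 ratio, normalised to no-enzyme and no-compound controls, and IC50 was fitted from 8 4-fold dilutions.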

[2] = system: IL-12-induced IFN-γ secretion in NK92 cells; assay: Inhibition of IL-12-induced IFN-γ Secretion in NK92 Cells (ELISA); type: cell-based, human; details: Homo sapiens, 24 hours incubation, 8 concentration points, read-out: IC50 (NK92_IL12/IFNγ)
Description: Inhibition of IL-12-induced IFN-γ Secretion in NK92 Cells
The effect of the compounds of the present invention on IFN-γ secretion induced by IL-12 in NK92 cells was evaluated by an enzyme-linked immunosorbent assay (ELISA).
IL-12 receptor is mainly expressed in activated T-cells, NK cells (NK92 is a NK cell line), DC cells, and B-cells. When binding to IL-12, it activates JAK2/TYK2 signal transduction pathway within NK cells and T lymphocytes, thereby inducing secretion of IFN-γ.
The experimental method is generally described below:
The test compound was dissolved in DMSO to 2.5 mM, followed by a serial 4-fold dilution with DMSO to a minimum concentration of […]. Each concentration was further diluted 50-fold with an FBS-free MEMα medium (Gibco, 12561-056).
NK92 cells (Nanjing Cobioer, CBP60980) were cultured in a complete MEMα medium containing 12.5% FBS (Ausbian, VS500T), 12.5% horse serum (Gibco, 16050-122), 0.02 mM folic acid (Sigma, F8758), 0.2 mM inositol (Sigma, 17850), 0.55 mM β-mercaptoethanol (Gibco, 21985-023), 200 U/mL IL-2 (R&D Systems, 202-1L), and 100 U/mL penicillin (Thermofisher, 15140122). When covering 80-90% of the culture container surface, the cells were dispersed and plated on a 96-well plate (Thermofisher, 167425) with 100,000 cells per well (80 μL of the complete MEMα medium without IL-2). The 96-well plate was then incubated overnight in a 37° C./5% CO2 incubator.
After overnight incubation, 10 μL of the test compound and 10 μL of 50 ng/mL IL-12 (R & D Systems, 219-1L) were added to each well and mix gently, and the 96-well plate was incubated in the 37° C./5% CO2 incubator for additional 24 hours. The plate as centrifuged at 800 rpm for 10 minutes at room temperature and 50 μL of the supernatant from each well was transferred to another 96-well plate (Sigma, CLS3695) coated with anti-IFN-γ antibody. The amount of IFN-γ secretion was detected following the instruction from the Human IFN-γ DuoSet ELISA kit (R & D Systems, DY285B). In the experiment, the group with IL-12 and the test compound being replaced with the MEMα medium was the non-stimulated control group (100% inhibition), and the group with IL-12 and 0.2% DMSO was the stimulated group (0% inhibition). The percentage of inhibition on IL-12 induced IFN-γ secretion in NK-92 cells by the test compound was calculated using the following formula: Percentage of inhibition=100−100*(signalcompound−signalnon-stimulated control)/(signalstimulated control−signalnon-stimulated control)
The IC50 value of the test compound was calculated front 8 concentration points using the XLfit software (ID Business Solutions Ltd., UK) by the following formula: Y=Bottom+(Top−Bottom)/(1+10^((log IC50−X)×slope factor))
Where Y was the percentage of inhibition, X was the logarithm of the concentration of the test compound, Bottom was the bottom plateau value of the S-shaped curve, Top was the top plateau value of the S-shaped curve, and slope factor was the slope coefficient of the curve.

[3] = target: T2, human recombinant JAK2 protein (Homo sapiens, UniProt O60674); assay: JAK2 Inhibition Assay (HTRF kinase assay); type: biochemical; details: human recombinant JAK2, 2.5 μM ATP substrate solution
T2 construct: purchased Carna Biosciences 08-045
T2 sequence (O60674 826-1132 limits assumed): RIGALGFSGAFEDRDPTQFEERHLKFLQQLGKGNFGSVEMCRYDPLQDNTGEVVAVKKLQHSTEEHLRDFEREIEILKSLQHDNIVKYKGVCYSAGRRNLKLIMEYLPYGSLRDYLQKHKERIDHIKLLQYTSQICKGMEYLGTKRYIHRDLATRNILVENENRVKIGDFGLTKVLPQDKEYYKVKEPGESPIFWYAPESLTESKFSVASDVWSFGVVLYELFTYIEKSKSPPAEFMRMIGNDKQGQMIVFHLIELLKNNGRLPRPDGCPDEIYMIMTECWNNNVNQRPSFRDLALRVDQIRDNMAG
Summary of the method: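 Recombinant human JAK2 was preincubated 15 min at room temperature with compound in buffer containing 5 mM MgCl2, 1 mM DTT and 0.01% Brij35. Substrate solution (2.5 μM ATP, 0.25 μM biotinylated TK substrate) was then added for 30 min. Phosphorylation was detected by HTRF (665/620 nm ratio; no-enzyme = 100% inhibition), and IC50 was fitted from an 8-point, 4-fold series.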

Row | IC50 [1] | IC50 [2] | IC50 [3] | SMILES
1 | 14 nM | 713 nM | 8.8 nM | CC(=O)N1C[C@@]2(C)CN(c3nc(Nc4cnn(C)c4)ncc3Cl)C[C@@]2(C)C1 [Compound 19, 1-((3aR,6aS)-5-(5-chloro-2-((1-methyl-1H-pyrazol-4-yl)amino)pyrimidin-4-yl)-3a,6a-dimethylhexahydropyrrolo[3,4-c]pyrrol-2(1H)-yl)ethan-1-one]
2 | 0.5 nM | 233 nM | 1.2 nM | Cn1cc(Nc2ncc(Cl)c(N3C[C@]4(C)CN(C(=O)CC#N)C[C@]4(C)C3)n2)cn1 [Compound 20, 3-((3aR,6aS)-5-(5-chloro-2-((1-methyl-1H-pyrazol-4-yl)amino)pyrimidin-4-yl)-3a,6a-dimethylhexahydropyrrolo[3,4-c]pyrrol-2(1H)-yl)-3-oxopropanenittile]
3 | 0.2 nM | 2210 nM | 0.4 nM | C[C@@]12CN(C(=O)CC#N)C[C@]1(C)CN(c1nc(Nc3cn[nH]c3)ncc1Cl)C2 [Compound 28, 3-((3aR,6aS)-5-(2-((1H-pyrazol-4-yl)amino)-5-chloropyrimidin-4-yl)-3a,6a-dimethylhexahydropyrrolo[3,4-c]pyrrol-2(1H)-yl)-3-oxopropanenitrile]
4 | 0.5 nM | 2780 nM | 0.4 nM | C[C@@]12CN(C(=O)CC#N)C[C@]1(C)CN(c1nc(Nc3cnn(CCO)c3)ncc1Cl)C2 [Compound 31, 3-((3aR,6aS)-5-(5-chloro-2-((1-(2-hydroxyethyl)-1H-pyrazol-4-yl)amino)pyrimidin-4-yl)-3a,6a-dimethylhexahydropyrrolo[3,4-c]pyrrol-2(1H)-yl)-3-oxopropanenitrile]
5 | 0.5 nM | 668 nM | 1 nM | C[C@@]12CN(C(=O)C3CC3)C[C@]1(C)CN(c1nc(Nc3cnn(CCO)c3)ncc1Cl)C2 [Compound 32]
6 | 2.9 nM | 215 nM | 6.2 nM | C[C@@]12CN(C(=O)C3CC3)C[C@]1(C)CN(c1nc(Nc3cnn(CC#N)c3)ncc1Cl)C2 [Compound 33, 2-(4-((5-chloro-4-((3aR,6aS)-5-(cyclopropanecarbonyl)-3a,6a-dimethylhexahydropyrrolo[3,4-c]pyrrol-2(1H)-yl)pyrimidin-2-yl)arnino)-1H-pyrazol-1-yl)acetonitrile]

More lines, now with the values behind:

Row | SMILES | IC50 [1] | IC50 [2] | IC50 [3]
7 | CN1CCC(n2cc(Nc3ncc(Cl)c(N4C[C@]5(C)CN(C(=O)C6CC6)C[C@]5(C)C4)n3)cn2)CC1 [Compound 16, ((3aR,6aS)-5-(5-chloro-2-((1-(1-methylpiperidin-4-yl)-1H-pyrazol-4-yl)amino)pyrimidin-4-yl)-3a,6a-dimethylhexahydropyrrolo[3,4-c]pyrrol-2(1H)-yl)(cyclopropyl)methanone] | 1.2 nM | 1010 nM | 0.9 nM
8 | C[C@@H](O)Cn1cc(Nc2ncc(Cl)c(N3C[C@]4(C)CN(C(=O)C5CC5)C[C@]4(C)C3)n2)cn1 [Compound 17, ((3aR,6aS)-5-(5-chloro-2-((1-((R)-2-hydroxypropyl)-1H-pyrazol-4-yl)amino)pyrimidin-4-yl)-3a,6a-dimethylhexahydropyrrolo[3,4-c]pyrrol-2(1H)-yl)(cyclopropyl)methanone] | 1.6 nM | 1050 nM | 3.2 nM
9 | C[C@H](O)Cn1cc(Nc2ncc(Cl)c(N3C[C@]4(C)CN(C(=O)C5CC5)C[C@]4(C)C3)n2)cn1 [Compound 18] | 1.6 nM | 617 nM | 3.5 nM
10 | Cn1cc(Nc2ncc(Cl)c(N3C[C@]4(C)CN(C(=O)[C@H]5CC5(F)F)C[C@]4(C)C3)n2)cn1 [Compound 21] | 2 nM | 490 nM | 10 nM
11 | Cn1cc(Nc2ncc(Cl)c(N3C[C@]4(C)CN(C(=O)[C@@H]5CC5(F)F)C[C@]4(C)C3)n2)cn1 [Compound 22, ((3aR,6aS)-5-(5-chloro-2-((1-methyl-1H-pyrazol-4-yl)amino)pyrimidin-4-yl)-3a,6a-dimethylhexahydropyrrolo[3,4-c]pyrrol-2(1H)-yl)((S)-2,2-difluorocyclopropyl)methanone] | 0.8 nM | 305 nM | 1.4 nM
12 | C[C@@]12CN(C(=O)C3CC3)C[C@]1(C)CN(c1nc(Nc3cn[nH]c3)ncc1Cl)C2 [Compound 23, ((3aR,6aS)-5-(2-((1H-pyrazol-4-yl)amino)-5-chloropyrimidin-4-yl)-3a,6a-dimethylhexahydropyrrolo[3,4-c]pyrrol-2(1H)-yl)(cyclopropyl)methanone] | 1 nM | 551 nM | 3 nM
13 | Cn1cc(Nc2ncc(Cl)c(N3C[C@]4(C)CN(c5ccncn5)C[C@]4(C)C3)n2)cn1 [Compound 25, 5-chloro-4-((3aR,6aS)-3a,6a-dimethyl-5-(pyrimidin-4-yl)hexahydropyrrolo[3,4-c]pyrrol-2(1H)-yl)-N-(1-methyl-1H-pyrazol-4-yl)pyrimidin-2-amine] | 0.3 nM | 399 nM | 0.9 nM
14 | Cn1cc(Nc2ncc(Cl)c(N3C[C@H]4CN(C(=O)CC#N)C[C@H]4C3)n2)cn1 [Compound 26, 3-((3aR,6aS)-5-(5-chloro-2-((1-methyl-H-pyrazol-4-yl)amino)pyrimidin-4-yl)hexahydropyrrolo[3,4-c]pyrrol-2(1H)-yl)-3-oxopropanenitrile] | 6.1 nM | 652 nM | 10 nM
15 | Cn1cc(Nc2ncc(Cl)c(N3C[C@H]4CN(C(=O)[C@@H]5CC5(F)F)C[C@H]4C3)n2)cn1 [Compound 27, ((3aR,6aS)-5-(5-chloro-2-((1-methyl-1H-pyrazol-4-yl)amino)pyrimidin-4-yl)hexahydropyrrolo[3,4-c]pyrrol-2(1H)-yl)((S)-2,2-difluorocyclopropyl)methanone] | 16 nM | 847 nM | 15 nM
16 | C[C@@]12CN(C(=O)[C@@H]3CC3(F)F)C[C@]1(C)CN(c1nc(Nc3cn[nH]c3)ncc1Cl)C2 [Compound 29, ((3aR,6aS)-5-(2((1H-pyrazol-4-yl)amino)-5-chloropyrimidin-4-yl)-3a,6a-dimethylhexahydropyrrolo[3,4-c]pyrrol-2(1H)-yl)((S)-2,2-difluorocyclopropyl)methanone] | 0.4 nM | 380 nM | 0.5 nM
17 | C[C@@]12CN(C(=O)C3CC3)C[C@]1(C)CN(c1nc(Nc3cnn(C(F)F)c3)ncc1Cl)C2 [Compound 30, ((3aR,6aS)-5-(5-chloro-2-((1-(difluoromethyl)-1H-pyrazol-4-yl)amino)pyrimidin-4-yl)-3a,6a-dimethylhexahydropyrrolo[3,4-c]pyrrol-2(1H)-yl)(cyclopropyl)methanone] | 1.4 nM | 1210 nM | 4.6 nM
